Values after ≈ are worked out from the molar mass of the structure shown. Where two headings read alike, the source gives them in different places.
Legend:
Assay type in all cases: cell-based
Streptococcus bovis = assay: MIC, agar dilution, Streptococcus bovis; conditions: Streptococcus equinus; strain UC6281; read-out: MIC
Method: (§1) Stock solution of each test antibiotic compound were prepared to have a concentration of 2 mg. of the test compound per milliliter in sterile water of 0.1M ammonium acetate solution. The amount of each compound used was adjusted for base compound activity as calculated from the purity data for the selected batch of compound.
(§2) The dilution procedure described by Washington and Sutter [Manual of Clinical Microbiology, 3rd, Edit. (Lennett, E. H. et al, Eds.), pp. 453-458 (1980), American Society for Microbiology, Washington, D.C.] was modified so that serial concentrations of 128 to 0.0625 microgram/ml. in sterile water was obtained. Then 1.5 ml. aliquots of these test antibiotic dilution mixtures are added to 13.5 molten (50° C.) Mueller-Hinton agar. Each resulting mixture is poured into 15×100 mm, sterile Petri plates and allowed to dry at room temperature overnight.
(§3) Test bacterial cultures are maintained at -70° C. on glass beads. [See R. J. Yancey, Jr. et al, Amer. Jr. of Vet. Research, 48, No. 7, pp. 1050-1053, (1987)]. At least one bacteria-laden bead per culture is dropped into one ml. of brain heart infusion (BHI) broth for overnight culture at 37° C. in 5% V/V carbon dioxide in air atmosphere.
(§4) On the data of assay, 2 to 8 drops of the bacterial broth cultures are transferred to fresh BHI broth (1 ml.) and the mixture is incubated for 4 to 6 hours at 37° C. in a 5% V/V carbon dioxide in air atmosphere. The resulting cultures are then diluted to match a 0.5 MacFarland standard and further diluted 1:20 V/V with sterile saline solution.
(§5) A 0.001 ml. drop of the resulting mixture, containing approximately 10^3 to 10^4 colony forming units (CFU) of each test bacteria organism, is dispensed onto the surface of the test antibiotic compound test plates with a Steer's type replicator. The resulting innoculated plates are incubated 16 to 18 hours at 37° C. with a carbon dioxide atmosphere.
as §1, with “Stock solutions” for “Stock solution”
as §2, with “mm.” for “mm,”
as §2, with “for Microbiology.” for “for Microbiology,”, “15×100 mm.” for “15×100 mm,”
as §3, with “culture” for “cultures”
(§6) On the day of assay, 2 to 8 drops of the bacterial broth cultures are transferred to fresh BHI broth (1 ml.) and the mixture is incubated for 4 to 6 hours at 37° C. in a 5% V/V carbon dioxide in air atmosphere. […]

Micrococcus luteus = assay: MIC, agar dilution, Micrococcus luteus; conditions: Micrococcus luteus; strain UC130; read-out: MIC
Method: as §1, §2, §3, §4, §5
as §1, with “Stock solutions” for “Stock solution”
as §2, with “mm.” for “mm,”
as §2, with “for Microbiology.” for “for Microbiology,”, “15×100 mm.” for “15×100 mm,”
as §3, with “culture” for “cultures”
as §6

Enterococcus faecalis = assay: MIC, agar dilution, Enterococcus faecalis; conditions: Enterococcus faecalis; strain UC694; read-out: MIC
Method: as §1, with “Stock solutions” for “Stock solution”
as §2, §3, §4, §5, §1
as §2, with “mm.” for “mm,”
as §2, with “for Microbiology.” for “for Microbiology,”, “15×100 mm.” for “15×100 mm,”
as §3, with “culture” for “cultures”
as §6

Escherichia coli = assay: MIC, agar dilution, Escherichia coli; conditions: Escherichia coli, read-out: MIC
Method: as §1, §2, §3, §4, §5
as §1, with “Stock solutions” for “Stock solution”
as §2, with “mm.” for “mm,”
as §2, with “for Microbiology.” for “for Microbiology,”, “15×100 mm.” for “15×100 mm,”
as §3, with “culture” for “cultures”
as §6

Enterococcus faecium = assay: MIC, agar dilution, Enterococcus faecium; conditions: Enterococcus faecium; strain UC241; read-out: MIC
Method: as §1, with “Stock solutions” for “Stock solution”
as §2, §3, §4, §5, §1
as §2, with “mm.” for “mm,”
as §2, with “for Microbiology.” for “for Microbiology,”, “15×100 mm.” for “15×100 mm,”
as §3, with “culture” for “cultures”
as §6

[1] = system: Bordetella bronchiseptica; assay: MIC, agar dilution, Bordetella bronchiseptica; conditions: Bordetella bronchiseptica; strain UC6313; read-out: MIC
Method: as §1, §2, §3, §4, §5
as §1, with “Stock solutions” for “Stock solution”
as §2, with “mm.” for “mm,”
as §2, with “for Microbiology.” for “for Microbiology,”, “15×100 mm.” for “15×100 mm,”
as §3, with “culture” for “cultures”
as §6

[2] = system: Streptococcus dysgalactiae; assay: MIC, agar dilution, Streptococcus dysgalactiae; conditions: Streptococcus dysgalactiae; strain UC251; read-out: MIC
Method: as §1, §2, §3, §4, §5
as §1, with “Stock solutions” for “Stock solution”
as §2, with “mm.” for “mm,”
as §2, with “for Microbiology.” for “for Microbiology,”, “15×100 mm.” for “15×100 mm,”
as §3, with “culture” for “cultures”
as §6

Pseudomonas aeruginosa = assay: MIC, agar dilution, Pseudomonas aeruginosa; conditions: Pseudomonas aeruginosa, ATCC27853; strain ATCC 27853; read-out: MIC
Method: as §1, §2, §3, §4, §5
as §1, with “Stock solutions” for “Stock solution”
as §2, with “mm.” for “mm,”
as §2, with “for Microbiology.” for “for Microbiology,”, “15×100 mm.” for “15×100 mm,”
as §3, with “culture” for “cultures”
as §6

Streptococcus uberis = assay: MIC, agar dilution, Streptococcus uberis; conditions: Streptococcus uberis, read-out: MIC
Method: as §1, §2, §3, §4, §5
as §1, with “Stock solutions” for “Stock solution”
as §2, with “mm.” for “mm,”
as §2, with “for Microbiology.” for “for Microbiology,”, “15×100 mm.” for “15×100 mm,”
as §3, with “culture” for “cultures”
as §6

Corynebacterium pyogenes = assay: MIC, agar dilution, Corynebacterium pyogenes; conditions: strain 213-2; read-out: MIC
Method: as §1, §2, §3, §4, §5
as §1, with “Stock solutions” for “Stock solution”
as §2, with “mm.” for “mm,”
as §2, with “for Microbiology.” for “for Microbiology,”, “15×100 mm.” for “15×100 mm,”
as §3, with “culture” for “cultures”
as §6

Pasteurella hemolytica = assay: MIC (minimum inhibitory concentration), agar dilution, Pasteurella hemolytica; conditions: Pasteurella, read-out: MIC
Method: as §1, §2, §3, §4, §5
as §1, with “Stock solutions” for “Stock solution”
as §2, with “mm.” for “mm,”
as §2, with “for Microbiology.” for “for Microbiology,”, “15×100 mm.” for “15×100 mm,”
as §3, with “culture” for “cultures”
as §6

Pasteurella multocida = assay: MIC, agar dilution, Pasteurella multocida; conditions: Pasteurella multocida; strain UC9581; read-out: MIC
Method: as §1, §2, §3, §4, §5
as §1, with “Stock solutions” for “Stock solution”
as §2, with “mm.” for “mm,”
as §2, with “for Microbiology.” for “for Microbiology,”, “15×100 mm.” for “15×100 mm,”
as §3, with “culture” for “cultures”
as §6

Salmonella choleraesuis = assay: MIC, agar dilution, Salmonella choleraesuis; conditions: Salmonella enterica, read-out: MIC
Method: as §1, §2, §3, §4, §5
as §1, with “Stock solutions” for “Stock solution”
as §2, with “mm.” for “mm,”
as §2, with “for Microbiology.” for “for Microbiology,”, “15×100 mm.” for “15×100 mm,”
as §3, with “culture” for “cultures”
as §6

Streptococcus suis = assay: MIC, agar dilution, Streptococcus suis; conditions: Streptococcus suis; strain 650-2; read-out: MIC
Method: as §1, §2, §3, §4, §5
as §1, with “Stock solutions” for “Stock solution”
as §2, with “mm.” for “mm,”
as §2, with “for Microbiology.” for “for Microbiology,”, “15×100 mm.” for “15×100 mm,”
as §3, with “culture” for “cultures”
as §6

Streptococcus agalactiae = assay: MIC, agar dilution, Streptococcus agalactiae; conditions: Streptococcus agalactiae, read-out: MIC
Method: as §1, §2, §3, §4, §5
as §1, with “Stock solutions” for “Stock solution”
as §2, with “mm.” for “mm,”
as §2, with “for Microbiology.” for “for Microbiology,”, “15×100 mm.” for “15×100 mm,”
as §3, with “culture” for “cultures”
as §6

Salmonella typhimurium = assay: MIC, agar dilution, Salmonella typhimurium; conditions: Salmonella enterica, read-out: MIC
Method: as §1, §2, §3, §4, §5
as §1, with “Stock solutions” for “Stock solution”
as §2, with “mm.” for “mm,”
as §2, with “for Microbiology.” for “for Microbiology,”, “15×100 mm.” for “15×100 mm,”
as §3, with “culture” for “cultures”
as §6

Staphylococcus aureus = assay: MIC, agar dilution, Staphylococcus aureus; conditions: Staphylococcus aureus, read-out: MIC
Method: as §1, §2, §3, §4, §5
as §1, with “Stock solutions” for “Stock solution”
as §2, with “mm.” for “mm,”
as §2, with “for Microbiology.” for “for Microbiology,”, “15×100 mm.” for “15×100 mm,”
as §3, with “culture” for “cultures”
as §6

[3] = CHOLERAESUIS / UC6073, strain UC6073
[4] = CHOLERAESUIS / UC6077, strain UC6077
[5] = TYPHIMURIUM / UC6162, strain UC6162
[6] = TYPHIMURIUM / UC6164, strain UC6164

SMILES	MIC (Streptococcus bovis) [µg/mL]	MIC (Micrococcus luteus) [µg/mL]	MIC (Enterococcus faecalis) [µg/mL]	MIC (Escherichia coli; strain UC3784) [µg/mL]	MIC (Escherichia coli; strain UC6720) [µg/mL]	MIC (Escherichia coli; strain UC9670) [µg/mL]	MIC (Enterococcus faecium) [µg/mL]	MIC [1] [µg/mL]	MIC [2] [µg/mL]	MIC (Pseudomonas aeruginosa) [µg/mL]	MIC (Streptococcus uberis; strain UC3946) [µg/mL]	MIC (Streptococcus uberis; strain UC6159) [µg/mL]	MIC (Corynebacterium pyogenes) [µg/mL]	MIC (Pasteurella hemolytica; strain UC6531) [µg/mL]	MIC (Pasteurella hemolytica; strain UC6532) [µg/mL]	MIC (Pasteurella hemolytica; strain UC9582) [µg/mL]	MIC (Pasteurella multocida) [µg/mL]	MIC (Salmonella choleraesuis; [3]) [µg/mL]	MIC (Salmonella choleraesuis; [4]) [µg/mL]	MIC (Streptococcus suis) [µg/mL]	further results
CO/N=C(\C(=O)N[C@@H]1C(=O)N2C(C(=O)O)=C(CSSCc3ccco3)CS[C@H]12)c1csc(N)n1 [Example 16]	≤ 0.06	≤ 0.06	> 32	4 (≈ 7.38 µM)	8 (≈ 14.8 µM)	4 (≈ 7.38 µM)	> 32	> 32	≤ 0.06	> 32	≤ 0.06	4 (≈ 7.38 µM)	0.13 (≈ 0.24 µM)	0.25 (≈ 0.462 µM)	0.13 (≈ 0.24 µM)	0.13 (≈ 0.24 µM)	1 (≈ 1.85 µM)	16 (≈ 29.5 µM)	32 (≈ 59.1 µM)	≤ 0.06	MIC (Streptococcus agalactiae; strain UC3947): ≤ 0.06 µg/mL; MIC (Streptococcus agalactiae; strain UC6892): ≤ 0.06 µg/mL; MIC (Salmonella typhimurium; [5]): 16 µg/mL (≈ 29.5 µM); MIC (Salmonella typhimurium; [6]): 8 µg/mL (≈ 14.8 µM); MIC (Staphylococcus aureus; strain UC6093): 1 µg/mL (≈ 1.85 µM); MIC (Staphylococcus aureus; strain UC6097): 2 µg/mL (≈ 3.69 µM); MIC (Staphylococcus aureus; strain UC9203): 1 µg/mL (≈ 1.85 µM)
CO/N=C(\C(=O)N[C@@H]1C(=O)N2C(C(=O)O)=C(CSSC)CS[C@H]12)c1csc(N)n1 [Example 9, 7-[2-(2-amino-1,3-thiazo-4-yl]-2-(methoxyimino)acetamimdo]-3-methyldithiomethyl-3-cephem-4-carboxylic acid]	≤ 0.06	0.13 (≈ 0.273 µM)	> 32	1 (≈ 2.1 µM)	1 (≈ 2.1 µM)	1 (≈ 2.1 µM)	> 32	> 32	≤ 0.06	> 32	0.13 (≈ 0.273 µM)	16 (≈ 33.6 µM)	0.5 (≈ 1.05 µM)	≤ 0.06	≤ 0.06	≤ 0.06	≤ 0.06	1 (≈ 2.1 µM)	4 (≈ 8.41 µM)	≤ 0.06	MIC (Streptococcus agalactiae; strain UC3947): ≤ 0.06 µg/mL; MIC (Streptococcus agalactiae; strain UC6892): ≤ 0.06 µg/mL; MIC (Salmonella typhimurium; [5]): 1 µg/mL (≈ 2.1 µM); MIC (Salmonella typhimurium; [6]): 1 µg/mL (≈ 2.1 µM); MIC (Staphylococcus aureus; strain UC6093): 2 µg/mL (≈ 4.21 µM); MIC (Staphylococcus aureus; strain UC6097): 2 µg/mL (≈ 4.21 µM); MIC (Staphylococcus aureus; strain UC9203): 2 µg/mL (≈ 4.21 µM)

From US5134137A, “Cephalosporin antibiotics” (The Upjohn Company, priority 1990, dated 1992)
